Measured values taken from PMC8307904, “Synthesis and Structure of Novel Copper(II) Complexes with N,O- or N,N-Donors as Radical Scavengers and a Functional Model of the Active Sites in Metalloenzymes” (International Journal of Molecular Sciences, 2021).
“Also recorded” adds a separate entry of the source. Like-named read-outs stand apart in the source and are kept apart here. Blank lines part the entries; values can stand above or below the compound they belong to.

What was measured:
[1] = test system: healthy mouse fibroblast cell line (BALB/3T3); test: in vitro cytotoxicity / proliferation, BALB/3T3; type: cell-based; details: for IC50: BALB/3T3 normal cell line, read-out: IC50 (inhibits proliferation of 50% of cells)
From the text: (§1) For IC50 determination, the human cancer lines A549 (non-small cell lung carcinoma), HT29 (colon adenocarcinoma) and MCF-7 (breast adenocarcinoma), and a healthy mouse fibroblast cell line (BALB/3T3), were used. All tested cell lines were obtained from the American Type Culture Collection (Rockville, MD, USA) and maintained at the Cell Culture Collection of the Hirszfeld Institute of Immunology and Experimental Therapy (Wrocław, Poland). The details of the experimental conditions were described in [69]. […] IC50 values were calculated separately for each experiment, which was repeated 3–5 times.

[2] = test system: HT29 (colon adenocarcinoma); test: in vitro cytotoxicity / proliferation, HT29; type: cell-based, human; details: read-out: IC50 (inhibits proliferation of 50% of cells)
From the text: as §1

[3] = test system: total antioxidant status (TAS); test: TAS level (RANDOX test) in patients' blood samples after addition of the mimetic; type: biochemical, human; details: post-chemotherapy group, 25 µg/mL, versus samples without complex
From the text: (§2) The present study was based on 20 women of the Regional Hospital in Kielce who had previously undergone therapy for diagnosed breast tumour, and 10 healthy volunteers (samples were anonymised). Patients were divided into subgroups those after chemotherapy (n = 10) and after radiotherapy (n = 10). The protocol and procedures were undertaken according to the Helsinki Declaration and were approved by the Bioethics Committee of the Świętokrzyska Medical Chamber in Kielce (permission number 1/2015-B). Before obtaining blood, patients and healthy subjects signed informed consent and agreed to the use of the samples for research purposes. Approximately 5 mL of blood was taken from the patients by venous puncture. Blood samples were collected in 3 mL tubes containing EDTA as an anticoagulant, and in tubes with no anticoagulant. Tubes were centrifuged at 3500 rpm for 15 min to obtain plasma and serum, respectively. Erythrocytes were washed with 0.9% sodium chloride. […]
(§3) The activities of TAS, SOD, CAT and GPx were measured using commercial kits, according to the manufacturers’ instructions. […]
The TAS level was evaluated by RANDOX test (Randox Laboratories, United Kingdom) following the method described by Miller et al.. […] Suppression of the blue-green colour of radicals (measured at 600 nm) is proportional to antioxidants’ concentration (TAS). The results were expressed as mmol/L serum.

[4] = test system: MCF-7 (breast adenocarcinoma); test: in vitro cytotoxicity / proliferation, MCF-7; type: cell-based, human; details: read-out: IC50 (inhibits proliferation of 50% of cells)
From the text: as §1

CAT = CAT activity (Catalase assay kit) in patients' blood samples after addition of the mimetic; type: biochemical, human; details: post-chemotherapy group, 25 µg/mL, versus samples without complex
From the text: as §2, with “respectively.” for “respectively. Erythrocytes were washed with 0.9% sodium chloride.”
as §3
The CAT activity measurement was measured with the Catalase assay kit (Calbiochem, Merck, Darmstadt, Germany) based on the reaction of the enzyme with methanol in the presence of an optimal concentration of H2O2 [72]. The formaldehyde produced is measured colourimetrically (at 540 nm) with 4-amino-3-hydrazino- 5-mercapto-1,2,4-triazole (Purpald) as the chromogen.

solubility = type: physicochemical
Protocol: (§4) Among the synthetic compounds used for modelling biological systems, mimetics that are soluble in solvents of neutral pH are particularly favoured because they can penetrate cell membranes and, thus, be absorbed by the organism. […] Additionally, we checked the stability of selected complexes in buffer solution (PBS) at two different time points (0 min and 12 h).

[5] = stability in buffer solution (PBS) by UV-Vis; type: physicochemical; details: room temperature, 0 min and 12 h, UV-Vis spectra
Protocol: as §4

SOD = SOD activity (RANSOD test) in patients' blood samples after addition of the mimetic; type: biochemical, human
From the text: as §2, §3
The SOD activity was measured with the RANSOD test (Randox Laboratories, United Kingdom) based on the method of McCord and Fridovich. […] The superoxide dismutase activity is measured by the degree of inhibition of this reaction. […] The activity of SOD was measured spectrophotometrically at 505 nm and expressed as U/mL.

[6] = ABTS radical assay (free radical scavenging); type: biochemical
Protocol: We investigated the free radical scavenging ability of the selected ligands and their newly synthesised complexes using the ABTS assay. 2,2′-Azinobis-[3-ethylbenzthiazoline-6-sulfonic acid] (ABTS) was dissolved in Milli-Q water to yield a 7 mM solution. The ABTS radical cation solution was prepared by allowing the ABTS solution to react with the K2S2O8 solution (final concentration 2.45 mM) for 16 h in the dark at room temperature. It has been reported that the extinction coefficient of ABTS^•+ radicals at 734 nm is 1.5 × 10^4 mol^−1 L cm^−1. Using the Beer–Lambert law, ABTS^•+ radical concentrations were calculated. To determine the antioxidant capacity of the complex solutions and standard antioxidant (Trolox), the ABTS solution was diluted with 5 mM PBS (pH 7.4) to an absorbance at 732 nm of 0.7 ± 0.1 After the addition of different volumes (0–1 mL) of each compound solution to 2.5 mL of diluted ABTS^•+, the absorbance was measured at 30 min. All samples were analysed in triplicate. The ABTS^•+radical scavenging activity (AA%) was calculated using the following equation: AA% = ((Acontrol − Asample)/(Acontrol)) × 100, where Acontrol is the absorbance of the blank control (containing ABTS^•+ solution without test sample) and Asample is the absorbance of the test sample. The antioxidant activity was described as the 50% inhibition concentration (IC50). The IC50 values were calculated from regression lines where x is the concentration of complex or ligand in mM and y is the percent inhibition of the analysed compound.

[7] = test system: A549 (non-small cell lung carcinoma); test: in vitro cytotoxicity / proliferation, A549; type: cell-based, human; details: read-out: IC50 (inhibits proliferation of 50% of cells)
From the text: as §1

[8] = set-up: method as in PMID 24406400; details: aqueous solution; cited from earlier work
[9] = ABTS^•+ diluted with 5 mM PBS pH 7.4, absorbance at 30 min, read-out: IC50 (ABTS radical scavenging activity)

Compound: N.N.[Cl][Pt][Cl] [cisplatin, reference compound]
IC50 [1]: 3.33 ± 0.38 µM
IC50 [2]: 9.23 ± 0.77 µM

increase of CAT enzyme activity after addition of the mimetic (CAT): 0.18 U/mL
stability in buffer solution (PBS) [5]: confirmed the stability
IC50 [6, 9]: 260 ± 30 µM
IC50 ([6]; Figure 10a and b50, unit inferred, read-out: IC50 (ABTS radical scavenging), unit inferred): 260 ± 30 µM
Compound: [Cu(2-(HOCH2)py)3](ClO4)2 [complex 1]
increase of total antioxidant status after addition of the mimetic [3]: 0.17 U/mL
IC50 [4]: 91.7 ± 2.9 µM
lower cytotoxicity against normal cell line compared to cisplatin ([1]; BALB/3T3, versus cisplatin): about 30 times
IC50 [1]: 106 ± 4.2 µM
IC50 [2]: 98.5 ± 2.7 µM
solubility in water (solubility): soluble in water; also recorded: good solubility in water
SOD activity higher compared to the control group (SOD; post-chemoradiotherapy group with mimetic): 4.2 U/mL
SOD activity (SOD; post-chemotherapy group, complex 25 μg/mL of blood): 211.91 U/mL
IC50 [7]: 94.7 ± 3.9 µM

IC50 [6, 9]: 3790 ± 230 µM
Compound: OCc1ccccn1 [2-(HOCH2)py, 2-(hydroxymethyl)pyridine, reference compound]

Compound: OC(O)(c1ccccn1)c1ccccn1.OC(O)(c1ccccn1)c1ccccn1.[Cu+2].[O-][Cl+3]([O-])([O-])[O-].[O-][Cl+3]([O-])([O-])[O-] [complex 5, [Cu(py2C(OH)2)2](ClO4)2]
solubility in water (solubility): soluble in water
stability in buffer solution (PBS) [5]: confirmed the stability
IC50 [6, 9]: 24500 ± 500 µM

Compound: OCCc1ccccn1.OCCc1ccccn1.[Cu+2].[Cu+2].[O-]CCc1ccccn1.[O-]CCc1ccccn1.[O-][Cl+3]([O-])([O-])[O-].[O-][Cl+3]([O-])([O-])[O-] [complex 3, [Cu2(2-(HOCH2CH2)py)2(2-(OCH2CH2)py)2](ClO4)2]
solubility in water (solubility): soluble in water
stability in buffer solution (PBS) [5]: confirmed the stability
IC50 [6, 9]: 620 ± 50 µM

IC50 [6, 9]: 7000 µM
Compound: OCCc1ccccn1 [2-(HOCH2CH2)py, 2-(hydroxyethyl)pyridine, reference compound]

Compound: O.O.OCc1ccccn1.OCc1ccccn1.OCc1ccccn1.OCc1ccccn1.[Cl-].[Cl-].[Cl-].[Cl-].[Mn+2].[Mn+2] [[Mn2(μ-Cl)2(2-CH2OHpy)4]Cl2·2H2O]
TOF (catalytic activity, H2O2 decomposition) [8]: 0.0187 min⁻¹
